From publication PMC13462928 (Nature Communications, 2026)
Where two headings read alike, the source gives them in different places. One block for each compound: values may come before it.

Key:
[1] = target: NUDT5 and the respective E3 ligase (Homo sapiens, UniProt P40337+Q9UKK9); assay: NanoBRET ternary complex formation assay NUDT5 and the respective E3 ligase (VHL or CRBN) in HEK293 cells; type: cell-based; settings: for Ternary complex formation below 1 µM (20 h): HEK293, 20 h; for Ternary complex formation below 1 µM (4 h): HEK293, 4 h
Description: NanoBRET ternary complex assays were performed following the manufacturer’s instructions (Promega). […] After 4 h or 20 h of incubation, a mix of substrate in assay medium was added to each well. Donor and acceptor signals were measured in a PHERAstar FSX or FS plate reader and analyzed by GraphPad Prism (v.9 or v.10). The acceptor/donor ratio was calculated, the no ligand background signal was subtracted, and multiplied by 1000 to yield mBRET units. Data were then normalized to DMSO.

NUDT5 [2] = target: NUDT5 (Homo sapiens, UniProt Q9UKK9); assay: NanoBRET NUDT5 target engagement (TE) assay in HEK293 cells; type: cell-based; parameters: expressed in transfected cells; host or cells: HEK293
NUDT5 [3] = target: T1, NUDT5 (Homo sapiens, UniProt Q96SW2+Q9UKK9); assay: Western blot NUDT5 degradation in HEK293 cells; type: cell-based; settings: 20 h, Western blot
Description: (§1) Pellets were lysed on ice using RIPA buffer (25 mM Tris (pH 7.5), 150 mM NaCl, 1% Igepal, 1% SDS, 0.1% SDC, 1x protease inhibitor (Roche, cOmplete mini, 11836170001), 1x phosphatase (Thermo Scientific, Halt, 78429), 0.1% benzonase (Merck, E1014-5KU)), incubated for 15 min and then centrifuged for 20 min at 4 °C at maximum speed in a table-top centrifuge. […] Membranes were blocked with 6% milk in PBS-T for 1 h at RT, washed, and then incubated with primary antibody diluted in PBS-T supplemented with 0.1% NaN3 overnight at 4 °C. Membranes were incubated with fluorophore-conjugated secondary antibodies, Alexa Fluor 680 anti-rabbit IgG (Life Technologies, A21109), Alexa Fluor 750 anti-mouse IgG (Life Technologies, A21037) diluted 1:5000 in 2% milk PBS-T, washed and imaged with an Odyssey imager (Licor).

HAP1 cell lines = assay: TH1760/6-TG cell viability assay in HAP1 cell lines; type: cell-based, human; settings: 72 h
Description: After 72 h incubation, cell viability was measured using the CellTiter-Glo assay (Promega). Signals were normalized to the control condition.

HAP1 cells = assay: Titration of NUDT5 degraders and controls against fixed 6-TG (2 µg/mL) in HAP1 cells, cell viability; type: cell-based, human; settings: HAP1, 2 µg/mL 6-TG, 72 h
Description: Cells were counted and adjusted to a density of 25,000 cells/mL in culture medium. […] Plates were sealed with breathable film and incubated at 37 °C with 5% CO₂ for 72 hours. Cell viability was assessed using the CellTiter-Glo Luminescent Cell Viability Assay, following the manufacturer’s protocol (Promega). Luminescence was measured using a PHERAstar FS or FSX plate reader, and data were analyzed using GraphPad Prism software (versions 9 or 10). Results were normalized to the vehicle control (DMSO).

NUDT5 [4] = target: T1, NUDT5; assay: Western blot NUDT5 degradation in HAP1 cells; type: cell-based; parameters: endogenous in cells; host or cells: HAP1; settings: HAP1 cells, Western blot, Fig. 3B
Description: as §1

[5] = read-out: EC50 (µM), TE 4h, HEK293, 4 h, Supplementary Table 1
[6] = read-out: EC50 (nM) TE (4h), HEK293, 4 h, Supplementary Table 3

Compound: Cc1ncsc1-c1ccc(CNC(=O)C2CC(O)CN2C(=O)C(NC(=O)COCCOCCCCCCC(=O)N2CCC(n3nc(-c4ccc(Oc5ccccc5)cc4)c4c(N)ncnc43)CC2)C(C)(C)C)cc1 (centres unmarked) [ASM74]
Ternary complex formation below 1 µM (20 h) ([1]; Supplementary Table 1): No
EC50 (NUDT5 [2]; [5]): > 10 µM

Compound: Cn1c(=O)c2c(nc(N3CCN(C(=O)CCOCCOCCNc4cccc5c4C(=O)N(C4CCC(=O)NC4=O)C5=O)CC3)n2Cc2nnc(-c3ccc(Cl)c(Cl)c3)o2)n(C)c1=O (centres unmarked) [ASM68]
Ternary complex formation below 1 µM (20 h) ([1]; Supplementary Table 2): Yes

Compound: Cn1c(=O)c2c(nc(N3CCN(C(=O)CCCCCCNc4cccc5c4C(=O)N(C4CCC(=O)NC4=O)C5=O)CC3)n2Cc2nnc(-c3ccc(Cl)c(Cl)c3)o2)n(C)c1=O (centres unmarked) [ASM84]
Ternary complex formation below 1 µM (20 h) ([1]; Supplementary Table 2): Yes

Compound: Cc1ncsc1-c1ccc(CNC(=O)C2CC(O)CN2C(=O)C(NC(=O)COCCOCCCCCCC(=O)N2CCN(c3nc4c(c(=O)n(C)c(=O)n4C)n3Cc3nnc(-c4ccc(Cl)c(Cl)c4)o3)CC2)C(C)(C)C)cc1 (centres unmarked) [ASM076]
Ternary complex formation below 1 µM (20 h) ([1]; Supplementary Table 2): No
EC50 (NUDT5 [2]; read-out: EC50 (nM) TE (4h), HEK293, 4 h, Supplementary Table 2): 2 µM

Compound: Cc1ncsc1-c1ccc(CNC(=O)C2CC(O)CN2C(=O)C(NC(=O)CCCCCOCCOCCOCCCCCCN2CCCC(n3nc(-c4ccc(Oc5ccccc5)cc4)c4c(N)ncnc43)C2)C(C)(C)C)cc1 (centres unmarked) [ASM73]
Ternary complex formation below 1 µM (20 h) ([1]; Supplementary Table 1): No
EC50 (NUDT5 [2]; [5]): > 10 µM

Compound: Cc1ncsc1-c1ccc(CNC(=O)C2CC(O)CN2C(=O)C(NC(=O)COCCOCCCCCCC(=O)N2CCCC(n3nc(-c4ccc(Oc5ccccc5)cc4)c4c(N)ncnc43)C2)C(C)(C)C)cc1 (centres unmarked) [ASM75]
Ternary complex formation below 1 µM (20 h) ([1]; Supplementary Table 1): No
EC50 (NUDT5 [2]; [5]): > 10 µM

Compound: Cc1ncsc1-c1ccc(CNC(=O)C2CC(O)CN2C(=O)C(NC(=O)CCCCCOCCCCCOCCCCCCN2CCCC(n3nc(-c4ccc(Oc5ccccc5)cc4)c4c(N)ncnc43)C2)C(C)(C)C)cc1 (centres unmarked) [ASM32]
Ternary complex formation below 1 µM (20 h) ([1]; Supplementary Table 1): No
EC50 (NUDT5 [2]; [5]): > 10 µM

Compound: Cn1c(=O)c2c(nc(N3CCN(CC4CCN(c5cc6c(cc5F)C(=O)N(C5CCC(=O)NC5=O)C6=O)CC4)CC3)n2Cc2nnc(-c3ccc(Cl)c(Cl)c3)o2)n(C)c1=O (centres unmarked) [ASM71]
Ternary complex formation below 1 µM (20 h) ([1]; Supplementary Table 3): No
EC50 (NUDT5 [2]; [6]): 0.017 µM

Compound: O=C(c1ccc2[nH]ccc2c1)N1CCN(S(=O)(=O)c2ccc3[nH]c(=O)oc3c2)CC1 [TH1760]
sensitization of cells towards 6-TG (HAP1 cell lines; HAP1 WT, 6-TG 1 µM fixed): sensitized HAP1 WT cells towards 6-TG in a dose-dependent manner
effect on cell viability without 6-TG (HAP1 cell lines; HAP1 cell lines, up to 50 µM): does not affect HAP1 cell viability

Compound: Cn1c(=O)c2c(nc(N3CCN(C(=O)CCCCNC(=O)COc4cccc5c4C(=O)N(C4CCC(=O)NC4=O)C5=O)CC3)n2Cc2nnc(-c3ccc(Cl)c(Cl)c3)o2)n(C)c1=O (centres unmarked) [ASM57]
Ternary complex formation below 1 µM (20 h) ([1]; Supplementary Table 2): No

Compound: Cn1c(=O)c2c(nc(N3CCN(CC4CCN(c5ccc6c(c5)C(=O)N(C5CCC(=O)NC5=O)C6=O)CC4)CC3)n2Cc2nnc(-c3ccc(Cl)c(Cl)c3)o2)n(C)c1=O (centres unmarked) [ASM70]
Ternary complex formation below 1 µM (20 h) ([1]; Supplementary Table 3): Yes
EC50 (NUDT5 [2]; [6]): 0.042 µM

Continued, in another order:

Ternary complex formation below 1 µM (4 h) ([1]; Supplementary Table 2): Yes
Ternary complex formation below 1 µM (20 h) ([1]; Supplementary Table 2): Yes
Compound: Cn1c(=O)c2c(nc(N3CCN(C(=O)CCCCCCCNc4cccc5c4C(=O)N(C4CCC(=O)NC4=O)C5=O)CC3)n2Cc2nnc(-c3ccc(Cl)c(Cl)c3)o2)n(C)c1=O (centres unmarked) [ASM134]

Ternary complex formation below 1 µM (20 h) ([1]; Supplementary Table 1): No
EC50 (NUDT5 [2]; [5]): 8.9 µM
Compound: Nc1ncnc2c1c(-c1ccc(Oc3ccccc3)cc1)nn2[C@@H]1CCCN(C(=O)c2cn(CCOCCOCCOCCNc3cccc4c3C(=O)N(C3CCC(=O)NC3=O)C4=O)nn2)C1 (some centres unmarked) [Compound P13I1, reference compound]

Ternary complex formation below 1 µM (4 h) ([1]; Supplementary Table 2): Yes
Ternary complex formation below 1 µM (20 h) ([1]; Supplementary Table 2): Yes
Compound: Cn1c(=O)c2c(nc(N3CCN(C(=O)CCCCNc4cccc5c4C(=O)N(C4CCC(=O)NC4=O)C5=O)CC3)n2Cc2nnc(-c3ccc(Cl)c(Cl)c3)o2)n(C)c1=O (centres unmarked) [ASM124]

Ternary complex formation below 1 µM (20 h) ([1]; Supplementary Table 3): No
EC50 (NUDT5 [2]; [6]): 0.061 µM
Compound: Cn1c(=O)c2c(nc(N3CCN(CC4CCN(c5cccc6c5C(=O)N(C5CCC(=O)NC5=O)C6=O)CC4)CC3)n2Cc2nnc(-c3ccc(Cl)c(Cl)c3)o2)n(C)c1=O (centres unmarked) [ASM110]

Ternary complex formation below 1 µM (20 h) ([1]; Supplementary Table 1): No
EC50 (NUDT5 [2]; [5]): 1.3 µM
Compound: Nc1ncnc2c1c(-c1ccc(Oc3ccccc3)cc1)nn2C1CCN(CCOCCOCC(=O)Nc2ccc3c(c2)C(=O)N(C2CCC(=O)NC2=O)C3=O)CC1 (centres unmarked) [MT-802, reference compound]

Ternary complex formation below 1 µM (20 h) ([1]; Supplementary Table 3): Yes
EC50 (NUDT5 [2]; [6]): 0.102 µM
Compound: Cn1c(=O)c2c(nc(N3CCN(CCC4CCN(c5ccc6c(c5)C(=O)N(C5CCC(=O)NC5=O)C6=O)CC4)CC3)n2Cc2nnc(-c3ccc(Cl)c(Cl)c3)o2)n(C)c1=O (centres unmarked) [ASM102]

Ternary complex formation below 1 µM (4 h) ([1]; Supplementary Table 2): Yes
Ternary complex formation below 1 µM (20 h) ([1]; Supplementary Table 2): Yes
Compound: Cn1c(=O)c2c(nc(N3CCN(C(=O)CCCCCCCCNc4cccc5c4C(=O)N(C4CCC(=O)NC4=O)C5=O)CC3)n2Cc2nnc(-c3ccc(Cl)c(Cl)c3)o2)n(C)c1=O (centres unmarked) [ASM133]

Ternary complex formation below 1 µM (4 h) ([1]; Supplementary Table 2): Yes
Ternary complex formation below 1 µM (20 h) ([1]; Supplementary Table 2): Yes
Compound: Cn1c(=O)c2c(nc(N3CCN(C(=O)CCCCCNc4cccc5c4C(=O)N(C4CCC(=O)NC4=O)C5=O)CC3)n2Cc2nnc(-c3ccc(Cl)c(Cl)c3)o2)n(C)c1=O (centres unmarked) [ASM122]
effect on NUDT5 protein levels (NUDT5 [3]): no significant effects on NUDT5 protein levels

Ternary complex formation below 1 µM (4 h) ([1]; Supplementary Table 2): Yes
Ternary complex formation below 1 µM (20 h) ([1]; Supplementary Table 2): Yes
Compound: Cn1c(=O)c2c(nc(N3CCN(C(=O)CCOCCNc4cccc5c4C(=O)N(C4CCC(=O)NC4=O)C5=O)CC3)n2Cc2nnc(-c3ccc(Cl)c(Cl)c3)o2)n(C)c1=O (centres unmarked) [ASM137]
effect on NUDT5 protein levels (NUDT5 [3]): no significant effects on NUDT5 protein levels

Ternary complex formation below 1 µM (4 h) ([1]; Supplementary Table 2): Yes
Ternary complex formation below 1 µM (20 h) ([1]; Supplementary Table 2): Yes
Compound: Cn1c(=O)c2c(nc(N3CCN(C(=O)CCCCCCCCOc4cccc5c4C(=O)N(C4CCC(=O)NC4=O)C5=O)CC3)n2Cc2nnc(-c3ccc(Cl)c(Cl)c3)o2)n(C)c1=O (centres unmarked) [ASM135]

Ternary complex formation below 1 µM (20 h) ([1]; Supplementary Table 3): No
EC50 (NUDT5 [2]; [6]): 0.103 µM
Compound: Cn1c(=O)c2c(nc(N3CCN(CC4CCN(c5ccc6c(c5)C(=O)N(C5CCC(=O)NC5=O)C6=O)C4)CC3)n2Cc2nnc(-c3ccc(Cl)c(Cl)c3)o2)n(C)c1=O (centres unmarked) [ASM105]

NUDT5 degradation (NUDT5 [4]): preventing NUDT5 degradation
EC50 (NUDT5 [2]; HEK293 cells, Supplementary Fig. 6B, read-out: NUDT5 NanoBRET target engagement EC50): 0.028 µM
Compound: CN1C(=O)CCC(N2C(=O)c3ccc(N4CCN(CC5CCN(C(=O)N6CCN(c7nc8c(c(=O)n(C)c(=O)n8C)n7Cc7nnc(-c8ccc(Cl)c(Cl)c8)o7)CC6)CC5)CC4)cc3C2=O)C1=O (centres unmarked) [dNUDT5nc]
rescue of 6-TG-induced toxicity (HAP1 cells): failed to rescue cell viability
NUDT5 engagement in live cells (NUDT5 [2]; NanoBRET): engaged their cognate target NUDT5 in live cells

Ternary complex formation below 1 µM (20 h) ([1]; Supplementary Table 2): Yes
Compound: Cn1c(=O)c2c(nc(N3CCN(C(=O)CCCNc4cccc5c4C(=O)N(C4CCC(=O)NC4=O)C5=O)CC3)n2Cc2nnc(-c3ccc(Cl)c(Cl)c3)o2)n(C)c1=O (centres unmarked) [ASM111]
effect on NUDT5 protein levels (NUDT5 [3]): no significant effects on NUDT5 protein levels

Ternary complex formation below 1 µM (4 h) ([1]; Supplementary Table 2): No
Ternary complex formation below 1 µM (20 h) ([1]; Supplementary Table 2): No
Compound: Cc1ncsc1-c1ccc(CNC(=O)C2CC(O)CN2C(=O)C(NC(=O)CCOCCOCCOCCC(=O)N2CCN(c3nc4c(c(=O)n(C)c(=O)n4C)n3Cc3nnc(-c4ccc(Cl)c(Cl)c4)o3)CC2)C(C)(C)C)cc1 (centres unmarked) [ASM131]

Ternary complex formation below 1 µM (4 h) ([1]; Supplementary Table 2): No
Ternary complex formation below 1 µM (20 h) ([1]; Supplementary Table 2): No
Compound: Cn1c(=O)c2c(nc(N3CCN(C(=O)CCCCCCOc4cccc5c4C(=O)N(C4CCC(=O)NC4=O)C5=O)CC3)n2Cc2nnc(-c3ccc(Cl)c(Cl)c3)o2)n(C)c1=O (centres unmarked) [ASM136]
